Results as given in patent US8563714B2, “Bridged spiro [2.4] heptane derivatives as ALX receptor and/or FPRL2 agonists” (Actelion Pharmaceuticals Ltd., priority 2009, dated 2013).

Legend:
human ALX receptor = molecular target: T1, human ALX receptor (Homo sapiens, UniProt P25090); test: Intracellular calcium measurements (FLIPR), agonistic activity in HEK293-hALXR-Gα16 cells; type: cell-based; settings: Fluo-4 calcium FLIPR, normalized to WKYMVm 10 nM
T1 construct: expressed in transfected cells; host or cells: HEK293 (HEK293-hALXR-Gα16)
T1 sequence (P25090 1-351): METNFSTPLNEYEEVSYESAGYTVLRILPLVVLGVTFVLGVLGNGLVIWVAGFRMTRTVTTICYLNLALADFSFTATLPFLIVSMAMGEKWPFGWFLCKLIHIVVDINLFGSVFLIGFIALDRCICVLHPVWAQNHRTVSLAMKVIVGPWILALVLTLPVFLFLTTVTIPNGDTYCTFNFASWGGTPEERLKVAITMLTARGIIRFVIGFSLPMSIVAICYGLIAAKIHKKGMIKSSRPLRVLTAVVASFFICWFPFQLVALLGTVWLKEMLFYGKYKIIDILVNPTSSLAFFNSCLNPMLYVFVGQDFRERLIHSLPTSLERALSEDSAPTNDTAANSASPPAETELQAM
Procedure, shortened: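 Agonist-induced calcium flux was recorded by FLIPR (488/540 nm) in HEK293-hALXR-Gα16 cells pre-loaded with Fluo-4 AM (1 μM, 60 min, 37°C). Peak signal above baseline, after subtracting buffer addition, was expressed relative to WKYMVm at 10 nM final.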

human FPRL2 = molecular target: T2, human FPRL2 (Homo sapiens, UniProt P25089); test: Intracellular calcium measurements (FLIPR), agonistic activity in HEK293-hFPRL2-Gα16 cells; type: cell-based; settings: Fluo-4 calcium FLIPR, normalized to GLY14-Humanin 100 nM
T2 construct: expressed in transfected cells; host or cells: HEK293 (HEK293-hFPRL2-Gα16)
T2 sequence (P25089 1-353): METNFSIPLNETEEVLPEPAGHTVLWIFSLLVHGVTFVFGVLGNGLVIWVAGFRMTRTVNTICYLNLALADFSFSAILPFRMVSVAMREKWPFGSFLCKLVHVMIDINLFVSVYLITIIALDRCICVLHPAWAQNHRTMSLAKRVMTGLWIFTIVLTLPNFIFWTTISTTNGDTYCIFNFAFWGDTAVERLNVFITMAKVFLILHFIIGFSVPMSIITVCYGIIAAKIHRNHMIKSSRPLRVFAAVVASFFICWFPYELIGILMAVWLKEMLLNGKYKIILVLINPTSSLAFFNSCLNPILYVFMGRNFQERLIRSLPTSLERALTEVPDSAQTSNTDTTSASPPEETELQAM
Procedure, shortened: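 Peak values after baseline subtraction are expressed relative to 100 nM Gly14-Humanin; compounds diluted in assay buffer from 10 mM DMSO stocks.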

SMILES | EC50 (human ALX receptor) | EC50 (human FPRL2)
O=C(NCCCCN1CCCC1)C1C(C(=O)NCCCn2ccnc2)C2C=CC1C21CC1 (stereo not drawn) [Example 141, (5R*)—N^5-(3-(1H-Imidazol-1-yl)-propyl)-(6R*)—N^6-(4-pyrrolidin-1-yl-butyl)-(4S*,7R*)-[4,7-ethenylene-spiro[2.4]heptane]-5,6-dicarboxamide] | 835 nM | 1600 nM
CN1CCCC1CCNC(=O)C1C(C(=O)Nc2ccc(Br)cc2)C2C=CC1C21CC1 (mixture of isomers) [Example 33, (5R*)—N^5-(4-Bromophenyl)-(6R*)—N^6-(2-(1-methyl-pyrrolidin-2-yl)-ethyl)-(4S*,7R*)-[4,7-ethenylene-spiro[2.4]heptane]-5,6-dicarboxamide] | 5.8 nM | 4100 nM
CC(CO)NC(=O)C1C(C(=O)Nc2ccc(Br)cc2)C2C=CC1C21CC1 (mixture of isomers) [Example 28, (5R*)—N^5-(4-Bromophenyl)-(6R*)—N^6-(1-hydroxy-prop-2-yl)-(4S*,7R*)-[4,7-ethenylene-spiro[2.4]heptane]-5,6-dicarboxamide] | 4.5 nM | > 25000 nM
O=C(NCCCN1CCCC1)[C@H]1[C@H](C(=O)Nc2ncc(Br)s2)[C@@H]2C=C[C@H]1C21CC1 (racemic) [Example 237, (5R*)—N^5-(5-Bromo-thiazol-2-yl)-(6R*)—N^6-(3-pyrrolidin-1-yl-propyl)-(4S*,7R*)-[4,7-ethenylene-spiro[2.4]heptane]-5,6-dicarboxamide] | 305 nM | 542 nM
O=C(NCC1C(C(=O)Nc2ccc(Br)cc2)C2C=CC1C21CC1)c1cnoc1-c1ccccc1 (stereo not drawn) [Example 160, (5R*)—N^5-(4-Bromo-phenyl)-(6R*)-6-{[(5-phenyl-isoxazole-4-carbonyl)-amino]-methyl}-(4S*,7R*)-[4,7-ethenylene-spiro[2.4]heptane]-5-carboxamide] | 37 nM | > 25000 nM
O=C(NC[C@H]1[C@H](C(=O)Nc2ccc(Br)cc2)[C@@H]2C=C[C@H]1C21CC1)c1cccc(F)c1Cl (racemic) [Example 176, (5R*)—N^5-(4-Bromo-phenyl)-(6R*)-6-{[(2-chloro-3-fluoro-phenyl-carbonyl)-amino]-methyl}-(4S*,7R*)-[4,7-ethenylene-spiro[2.4]heptane]-5-carboxamide] | 158 nM | 2230 nM
O=C(NCC1(O)CCCCC1)[C@H]1[C@H](C(=O)Nc2ncc(Br)s2)[C@@H]2CC[C@H]1C21CC1 [Example 409, (5R)—N^5-(5-Bromothiazol-2-yl)-(6R)—N^6-[(1-hydroxy-cyclohexyl)methyl]-(4S,7R)-[4,7-ethylene-spiro[2.4]heptane]-5,6-dicarboxamide] | 129 nM | 9190 nM
O=C(NCC1COCCO1)C1C(C(=O)Nc2ccc(Br)cc2)C2C=CC1C21CC1 (mixture of isomers) [Example 41, (5R*)—N^5-(4-Bromophenyl)-(6R*)—N^6-([1,4]-dioxan-2-yl-methyl)-(4S*,7R*)-[4,7-ethenylene-spiro[2.4]heptane]-5,6-dicarboxamide] | 9.5 nM | 8510 nM
COc1ccc(NC(=O)C2C(C(=O)NCCC(N)=O)C3C=CC2C32CC2)cc1 [Example 290, (5R)—N^5-(4-Methoxyphenyl)-(6R)—N^6-(3-amino-3-oxopropyl)-(4S,7R)-[4,7-ethenylene-spiro[2.4]heptane]-5,6-dicarboxamide] | 32 nM | 1440 nM
CC1CCC(NC(=O)C2C(C(=O)NCCCCN3CCCC3)C3C=CC2C32CC2)CC1 (mixture of isomers) [Example 126, (5R*)—N^5-(4-Methyl-cyclohex-1-yl)-(6R*)—N^6-(4-pyrrolidin-1-yl-butyl)-(4S*,7R*)-[4,7-ethenylene-spiro[2.4]heptane]-5,6-dicarboxamide] | 71 nM | 613 nM
O=C(NCCCCN1CCCC1)[C@H]1[C@H](C(=O)Nc2nc(Br)cs2)[C@@H]2C=C[C@H]1C21CC1 [Example 394, (5R)—N^5-(4-Bromo-thiazol-2-yl)-(6R)—N^6-(4-pyrrolidino-butyl)-(4S,7R)-[4,7-ethenylene-spiro[2.4]heptane]-5,6-dicarboxamide] | 1550 nM | 166 nM

Other lines, results leading:

EC50 (human ALX receptor) | EC50 (human FPRL2) | SMILES
0.35 nM | 235 nM | O=C(NCCCCN1CC[C@H](F)C1)[C@H]1[C@H](C(=O)Nc2ccc(Br)cc2)[C@@H]2C=C[C@H]1C21CC1 [Example 220, (5R)—N^5-(4-Bromophenyl)-(6R)—N^6-(4-((3S)-fluoropyrrolidino)butyl)-(4S,7R)-[4,7-ethenylene-spiro[2.4]heptane]-5,6-dicarboxamide]
0.3 nM | 174 nM | O=C(NCCCCN1CC[C@@H](F)C1)[C@H]1[C@H](C(=O)Nc2ccc(Br)cc2)[C@@H]2C=C[C@H]1C21CC1 [Example 219, (5R)—N^5-(4-Bromophenyl)-(6R)—N^6-(4((3R)-fluoropyrrolidino)butyl)-(4S,7R)-[4,7-ethenylene-spiro[2.4]heptane]-5,6-dicarboxamide]
8350 nM | 359 nM | CC(=O)c1cccc(CNC(=O)[C@H]2[C@H](C(=O)NCCCCN3CCCC3)[C@H]3C=C[C@@H]2C32CC2)c1 (racemic) [Example 359, (5R*)—N^5-(3-Acetylphenyl-methyl)-(6R*)—N^6-(4-pyrrolidino-butyl)-(4S*,7R*)-[4,7-ethenylene-spiro[2.4]heptane]-5,6-dicarboxamide]
330 nM | > 25000 nM | Cc1ccc(NC(=O)[C@H]2[C@H](C(=O)NCCC(N)=O)[C@H]3C=C[C@@H]2C32CC2)nc1 [Example 313, (5R)—N^5-(5-Methyl-pyridin-2-yl)-(6R)—N^6-(3-amino-3-oxopropyl)-(4S,7R)-[4,7-ethenylene-spiro[2.4]heptane]-5,6-dicarboxamide]
3230 nM | 219 nM | CC(=O)c1nc(CNC(=O)[C@H]2[C@H](C(=O)NCCCCN3CCCC3)[C@H]3C=C[C@@H]2C32CC2)cs1 (racemic) [Example 348, (5R*)—N^5-[(2-Acetyl-thiazol-4-yl)methyl]-(6R*)—N^6-(4-pyrrolidino-butyl)-(4S*,7R*)-[4,7-ethenylene-spiro[2.4]heptane]-5,6-dicarboxamide]
20 nM | 6190 nM | CC(C)CCNC(=O)[C@H]1[C@H](C(=O)Nc2ccc(Br)cc2)[C@@H]2C=C[C@H]1C21CC1 (racemic) [Example 58, (5R*)—N^5-(4-Bromophenyl)-(6R*)—N^6-(3-methyl-butyl)-(4S*,7R*)-[4,7-ethenylene-spiro[2.4]heptane]-5,6-dicarboxamide]
2.4 nM | 2480 nM | O=C(NCC(F)(F)F)[C@H]1[C@H](C(=O)Nc2ccc(Br)cc2)[C@@H]2C=C[C@H]1C21CC1 (racemic) [Example 19, (5R*)—N^5-(4-Bromophenyl)-(6R*)—N^6-(2,2,2-trifluoro-ethyl)-(4S*,7R*)-[4,7-ethenylene-spiro[2.4]heptane]-5,6-dicarboxamide]
33 nM | 75 nM | O=C(NCCCCN1CCCC1)[C@H]1[C@H](C(=O)NCc2csc(Br)c2)[C@@H]2C=C[C@H]1C21CC1 (racemic) [Example 202, (5R*)—N^5-(2-Bromo-thiophen-4-yl-methyl)-(6R*)—N^6-(4-pyrrolidin-1-yl-butyl)-(4S*,7R*)-[4,7-ethenylene-spiro[2.4]heptane]-5,6-dicarboxamide]
5.9 nM | 6140 nM | NC(=O)CCNC(=O)[C@H]1[C@H](C(=O)Nc2ccc(Br)nc2)[C@@H]2C=C[C@H]1C21CC1 [Example 242, (5R)—N^5-(2-Bromo-pyrid-5-yl)-(6R)—N^6-(3-amino-3-oxopropyl)-(4S,7R)-[4,7-ethenylene-spiro[2.4]heptane]-5,6-dicarboxamide]
52 nM | 472 nM | NCCCCNC(=O)[C@H]1[C@H](C(=O)NCc2ccc(Br)cc2F)[C@@H]2C=C[C@H]1C21CC1 [Example 320, (5R)—N^5-(4-Bromo-2-fluorophenyl-methyl)-(6R)—N^6-(4-amino-butyl)-(4S,7R)-[4,7-ethenylene-spiro[2.4]heptane]-5,6-dicarboxamide]
9 nM | 848 nM | O=C(NCCCn1ccnc1)[C@H]1[C@H](C(=O)Nc2ccc(Br)cc2)[C@@H]2C=C[C@H]1C21CC1 (racemic) [Example 40, (5R*)—N^5-(4-Bromophenyl)-(6R*)—N^6-(3-1H-imidazol-1-yl-propyl)-(4S*,7R*)-[4,7-ethenylene-spiro[2.4]heptane]-5,6-dicarboxamide]
